Format in all cases: functional
Assay [1] has as its system Sordaria fimicola. The assay can be described thus: Antifungal activity against Sordaria fimicola NRRL 6459 at 200 ug/disk by paper disk assay.
In assay [2] the test system is Bacillus subtilis. The assay can be described thus: Antibacterial activity against Bacillus subtilis ATCC 6051 at 200 ug/disk by standard disk assay. To be noted: read-out: IZ.
The subject of assay [3] is Ascobolus. Briefly: Antifungal activity against Ascobolus furfuraceus NRRL 6460 at 200 ug/disk by paper disk assay.
Assay [4] concerns Staphylococcus aureus. The assay can be described thus: Antibacterial activity against Staphylococcus aureus ATCC 29213 at 200 ug/disk by standard disk assay. To be noted: read-out: IZ.

Here are results for two compounds from ChEMBL document CHEMBL1151334, “Arugosin F: a new antifungal metabolite from the coprophilous fungus Ascodesmis sphaerospora” (1998).

The structures appear in SMILES notation.

On to `Cc1cc(O)c2c(c1)C(O)Oc1cccc(O)c1C2=O` (configuration not stated) [ARUGOSIN F], for which the Activity in assay [1] turned out to be 50%. In addition, the results for the zone of inhibition at 200 µg/disc in assay [2] and in assay [4] were 15 mm and 7 mm, respectively. The compound also displayed an inhibition at 200 µg/disc in assay [3] of 100%.

For the compound `Cc1cc(CO)c2c(=O)c3c(O)cccc3oc2c1`, the Activity in assay [1] was found to be 33%. The zone of inhibition at 200 µg/disc in assay [2] turned out to be 7 mm. The inhibition at 200 µg/disc in assay [3] is 20%.

As usually defined, the inhibition is the share of the control response that was lost under treatment. Read a high inhibition as a response far below the control.
